In the supplement of paper PMC10307832:

What was measured:
Experiment in all cases: relative viability (nuclei count vs DMSO), 5 days (fraction); higher = more cells survive
Vorinostat + Phenformin = compound: O=C(CCCCCCC(=O)Nc1ccccc1)NO [Vorinostat] + N=C(N)NC(=N)NCCc1ccccc1 [Phenformin] (partner 250 µM)
Outline: (§1)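 Five library-drug doses in √10 steps were combined with a fixed anchor-drug dose, or a single drug was given alone, by pin tool to lung cancer cell lines in 1536-well plates the day after seeding. Nuclei were stained and counted after 5 days. Relative viability is the nuclei count in treated wells over that in vehicle wells, taken as the median of duplicate plates.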

Vorinostat + Foretinib = compound: O=C(CCCCCCC(=O)Nc1ccccc1)NO [Vorinostat] + COc1cc2c(Oc3ccc(NC(=O)C4(C(=O)Nc5ccc(F)cc5)CC4)cc3F)ccnc2cc1OCCCN1CCOCC1 [Foretinib] (partner 0.25 µM)
Outline: as §1

Vorinostat + Tozasertib = compound: O=C(CCCCCCC(=O)Nc1ccccc1)NO [Vorinostat] + Cc1cc(Nc2cc(N3CCN(C)CC3)nc(Sc3ccc(NC(=O)C4CC4)cc3)n2)n[nH]1 [Tozasertib] (partner 0.1 µM)
Outline: as §1

Vorinostat + Alpelisib = compound: O=C(CCCCCCC(=O)Nc1ccccc1)NO [Vorinostat] + Cc1nc(NC(=O)N2CCC[C@H]2C(N)=O)sc1-c1ccnc(C(C)(C)C(F)(F)F)c1 [Alpelisib] (partner 2 µM)
Outline: as §1

Vorinostat + Trametinib = compound: O=C(CCCCCCC(=O)Nc1ccccc1)NO [Vorinostat] + CC(=O)Nc1cccc(-n2c(=O)n(C3CC3)c(=O)c3c(Nc4ccc(I)cc4F)n(C)c(=O)c(C)c32)c1 [Trametinib] (partner 0.02 µM)
Outline: as §1

Row | Cell Line | relative viability (Vorinostat + Phenformin; first compound 0.253 µM) | relative viability (Vorinostat + Phenformin; first compound 0.8 µM) | relative viability (Vorinostat + Phenformin; first compound 2.53 µM) | relative viability (Vorinostat + Phenformin; first compound 8 µM) | relative viability (Vorinostat + Foretinib; first compound 0.253 µM) | relative viability (Vorinostat + Foretinib; first compound 0.8 µM) | relative viability (Vorinostat + Foretinib; first compound 2.53 µM) | relative viability (Vorinostat + Foretinib; first compound 8 µM) | relative viability (Vorinostat + Tozasertib; first compound 0.253 µM) | relative viability (Vorinostat + Tozasertib; first compound 0.8 µM) | relative viability (Vorinostat + Tozasertib; first compound 2.53 µM) | relative viability (Vorinostat + Tozasertib; first compound 8 µM) | relative viability (Vorinostat + Alpelisib; first compound 0.253 µM) | relative viability (Vorinostat + Alpelisib; first compound 0.8 µM) | relative viability (Vorinostat + Alpelisib; first compound 2.53 µM) | relative viability (Vorinostat + Alpelisib; first compound 8 µM) | relative viability (Vorinostat + Trametinib; first compound 0.253 µM) | relative viability (Vorinostat + Trametinib; first compound 0.8 µM) | relative viability (Vorinostat + Trametinib; first compound 2.53 µM) | relative viability (Vorinostat + Trametinib; first compound 8 µM)
1 | NCI-H2087 | 0.449 | 0.331 | 0.0993 | 0.0935 | 1.34 | 0.615 | 0.153 | 0.0924 | 0.262 | 0.14 | 0.0617 | 0.0825 | 1.03 | 1.06 | 0.393 | 0.134 | 0.202 | 0.158 | 0.141 | 0.087
2 | SK-LU-1 | 0.658 | 0.549 | 0.285 | 0.123 | 0.881 | 0.829 | 0.385 | 0.137 | 0.303 | 0.186 | 0.143 | 0.101 | 1.14 | 0.721 | 0.488 | 0.178 | 0.495 | 0.474 | 0.41 | 0.205
3 | NCI-H1755 | 0.646 | 0.579 | 0.413 | 0.204 | 0.997 | 0.971 | 0.525 | 0.202 | 0.613 | 0.51 | 0.319 | 0.179 | 1.03 | 0.92 | 0.326 | 0.137 | 0.791 | 0.77 | 0.602 | 0.219
4 | NCI-H1395 | 0.475 | 0.501 | 0.401 | 0.341 | 1.09 | 1.09 | 0.822 | 0.427 | 1.02 | 0.682 | 0.456 | 0.324 | 1.48 | 1.09 | 0.57 | 0.373 | 1.23 | 0.964 | 0.777 | 0.412
5 | NCI-H1793 | 0.467 | 0.415 | 0.516 | 0.279 | 1.03 | 0.679 | 0.257 | 0.204 | 0.316 | 0.256 | 0.179 | 0.125 | 0.905 | 0.96 | 0.519 | 0.251 | 0.383 | 0.34 | 0.3 | 0.182
6 | NCI-H727 | 0.964 | 0.395 | 0.478 | 0.255 | 0.855 | 0.821 | 0.378 | 0.329 | 0.545 | 0.56 | 0.315 | 0.362 | 0.536 | 0.68 | 0.303 | 0.203 | 0.369 | 0.392 | 0.27 | 0.267
7 | LCLC-103H | 0.322 | 0.332 | 0.267 | 0.151 | 0.924 | 0.801 | 0.243 | 0.135 | 0.377 | 0.27 | 0.162 | 0.127 | 1.23 | 0.97 | 0.58 | 0.184 | 0.804 | 0.7 | 0.473 | 0.337
8 | EKVX | 0.228 | 0.238 | 0.225 | 0.134 | 0.859 | 0.931 | 0.714 | 0.138 | 0.39 | 0.275 | 0.194 | 0.11 | 0.992 | 0.951 | 0.4 | 0.14 | 0.401 | 0.337 | 0.18 | 0.115
9 | LXF-289 | 0.595 | 0.558 | 0.306 | 0.0606 | 0.981 | 0.97 | 0.3 | 0.0942 | 0.209 | 0.165 | 0.0836 | 0.0447 | 1.1 | 1.04 | 0.351 | 0.0687 | 0.709 | 0.639 | 0.424 | 0.0759
10 | HCC-827 | 0.455 | 0.521 | 0.453 | 0.239 | 1.07 | 1.02 | 0.55 | 0.174 | 0.5 | 0.454 | 0.236 | 0.135 | 1.08 | 1.04 | 0.634 | 0.197 | 0.712 | 0.642 | 0.351 | 0.163
11 | NCI-H3122 | 0.395 | 0.365 | 0.0662 | 0.118 | 1.04 | 1.05 | 0.242 | 0.0563 | 0.387 | 0.294 | 0.0525 | 0.0914 | 0.768 | 0.811 | 0.393 | 0.208 | 0.168 | 0.265 | 0.298 | 0.118
12 | HCC-15 | 0.609 | 0.473 | 0.22 | 0.0895 | 1.12 | 0.979 | 0.464 | 0.102 | 0.294 | 0.219 | 0.101 | 0.0559 | 0.93 | 0.864 | 0.468 | 0.0971 | 0.377 | 0.338 | 0.147 | 0.0834
13 | NCI-H441 | 1.1 | 0.863 | 0.317 | 0.169 | 0.874 | 0.971 | 0.59 | 0.175 | 0.607 | 0.529 | 0.3 | 0.194 | 0.754 | 0.616 | 0.289 | 0.11 | 0.555 | 0.602 | 0.226 | 0.127
14 | HCC-78 | 0.719 | 0.58 | 0.292 | 0.22 | 0.683 | 0.448 | 0.221 | 0.221 | 0.384 | 0.268 | 0.167 | 0.2 | 0.346 | 0.208 | 0.114 | 0.099 | 0.774 | 0.495 | 0.201 | 0.181
15 | H3255 | 0.33 | 0.302 | 0.323 | 0.262 | 0.859 | 0.868 | 0.812 | 0.223 | 0.705 | 0.525 | 0.277 | 0.219 | 0.874 | 0.714 | 0.414 | 0.209 | 0.819 | 0.709 | 0.576 | 0.227
16 | NCI-H322M | 0.94 | 0.761 | 0.452 | 0.284 | 1.1 | 0.925 | 0.428 | 0.309 | 0.51 | 0.496 | 0.381 | 0.298 | 0.93 | 0.852 | 0.576 | 0.296 | 0.595 | 0.501 | 0.552 | 0.408
17 | NCI-H838 | 0.95 | 0.562 | 0.317 | 0.139 | 1.33 | 1.05 | 0.51 | 0.173 | 0.263 | 0.227 | 0.172 | 0.111 | 1.23 | 1.1 | 0.605 | 0.185 | 0.631 | 0.481 | 0.279 | 0.112
18 | NCI-H2170 | 0.481 | 0.394 | 0.384 | 0.164 | 0.982 | 1.04 | 0.675 | 0.526 | 0.729 | 0.462 | 0.147 | 0.155 | 0.823 | 0.69 | 0.235 | 0.141 | 0.926 | 0.921 | 0.578 | 0.108
19 | NCI-H1734 | 0.501 | 0.388 | 0.297 | 0.0963 | 0.944 | 0.917 | 0.526 | 0.176 | 0.258 | 0.229 | 0.162 | 0.133 | 0.714 | 0.7 | 0.518 | 0.137 | 0.721 | 0.713 | 0.5 | 0.117
20 | NCI-H23 | 0.844 | 0.881 | 0.674 | 0.101 | 1.05 | 0.724 | 0.336 | 0.129 | 0.275 | 0.269 | 0.105 | 0.124 | 0.84 | 0.707 | 0.213 | 0.117 | 0.606 | 0.405 | 0.166 | 0.129
21 | NCI-H596 | 0.838 | 0.587 | 0.474 | 0.272 | 0.847 | 0.715 | 0.53 | 0.22 | 0.839 | 0.819 | 0.378 | 0.183 | 0.871 | 0.482 | 0.278 | 0.248 | 0.876 | 0.632 | 0.426 | 0.235
22 | A-427 | 0.389 | 0.396 | 0.229 | 0.139 | 1.21 | 1.13 | 0.561 | 0.191 | 0.182 | 0.168 | 0.134 | 0.0919 | 1.1 | 1.1 | 0.889 | 0.146 | 0.82 | 0.718 | 0.361 | 0.166
23 | NCI-H460 | 0.611 | 0.4 | 0.0276 | 0.016 | 1.09 | 0.927 | 0.0567 | 0.0329 | 0.593 | 0.0486 | 0.0314 | 0.0259 | 0.609 | 0.351 | 0.0248 | 0.0089 | 0.231 | 0.0799 | 0.0298 | 0.0227
24 | NCI-H2085 | 0.781 | 0.532 | 0.46 | 0.223 | 0.968 | 0.665 | 0.468 | 0.228 | 0.771 | 0.651 | 0.376 | 0.311 | 0.982 | 0.947 | 0.514 | 0.255 | 0.587 | 0.503 | 0.285 | 0.155
25 | NCI-H2405 | 0.495 | 0.404 | 0.279 | 0.0401 | 1.16 | 1.15 | 0.505 | 0.108 | 0.718 | 0.692 | 0.339 | 0.117 | 1.01 | 0.835 | 0.16 | 0.0486 | 0.87 | 0.872 | 0.486 | 0.141
26 | BEN | 0.297 | 0.215 | 0.146 | 0.0911 | 0.8 | 0.414 | 0.149 | 0.0734 | 0.463 | 0.441 | 0.248 | 0.0886 | 1.07 | 0.457 | 0.154 | 0.0775 | 0.928 | 0.659 | 0.367 | 0.149
27 | LCLC-97TM1 | 0.489 | 0.421 | 0.253 | 0.144 | 1.06 | 0.957 | 0.394 | 0.153 | 0.19 | 0.158 | 0.159 | 0.149 |  | 0.26 | 0.158 | 0.114 | 0.238 | 0.207 | 0.142 | 0.074
